Source: paper PMC12276029, “Structure−Activity Relationships of New 1‐Aryl‐1H‐Indole Derivatives as SARS‐CoV‐2 Nsp13 Inhibitors” (Chemmedchem, 2025)
Like-named read-outs stand apart in the source and are kept apart here.

What was measured:
in vitro = conditions: African green monkey
SARS-CoV-2 nsp13 [1] = target: T1, SARS-CoV-2 nsp13 (Severe acute respiratory syndrome coronavirus 2, UniProt P0DTD1); design: method as in PMID 37562607; conditions: SARS-CoV-2 nsp13 unwinding; cited from earlier work
Vero cells = test system: Vero cells; design: method as in PMID 37562607; conditions: cited from earlier work
HCoV229E = test system: HCoV229E; design: method as in PMID 37562607; conditions: cited from earlier work
SARS-CoV-2 [2] = test system: SARS-CoV-2; design: method as in PMID 37562607; conditions: cited from earlier work; for EC50: read-out: EC50 SARS-CoV-2 replication
SARS-CoV-2 nsp13 [3] = target: T1, SARS-CoV-2 nsp13; design: method as in PMID 37562607; conditions: SARS-CoV-2 nsp13 ATPase; cited from earlier work
MERS-CoV = conditions: cited from earlier work
SARS-CoV-2 nsp13 [4] = target: T1, SARS-CoV-2 nsp13; test: SARS-CoV-2 nsp13 unwinding-associated activity assay; type: biochemical; conditions: for IC50: SARS-CoV-2 nsp13-associated unwinding activity, means ± SD from two experiments in triplicate, read-out: Activity in enzyme assay IC50 Unwinding BSA-TCEP; for selectivity for unwinding over ATPase: IC50 ATPase vs IC50 unwinding
SARS-CoV-2 nsp13 [5] = target: T1, SARS-CoV-2 nsp13; test: SARS-CoV-2 nsp13 ATPase-associated activity assay; type: biochemical; conditions: SARS-CoV-2 nsp13-associated ATPase activity; means ± SD from two experiments in triplicate; read-out: Activity in enzyme assay IC50 ATPase BSA-TCEP
SARS-CoV-2 [6] = test: SARS-CoV-2 plaque assay in infected Vero E6 cells; type: cell-based; conditions: for EC50: Severe acute respiratory syndrome coronavirus 2, plaque assay, means ± SD, n = 9, read-out: EC50, concentration reducing SARS-CoV-2 replication in Vero cells by 50%

CC[C@@]1(O)C(=O)OCc2c1cc1n(c2=O)Cc2cc3ccccc3nc2-1 [Camptothecin, reference compound]
CC50 (in vitro): 11.1 ± 0.16 µM

CCOC(=O)/C(O)=C/C(=O)/C=C/c1cn(-c2ccc(F)cc2)c2ccccc12 [Compound 3]
IC50 (SARS-CoV-2 nsp13 [1]): 5.9 ± 0.3 µM | CC50 (Vero cells): > 264 µM | activity range on HCoV229E (HCoV229E): low micromolar | SI = CC50/EC50 (SARS-CoV-2 [2]): >16 | EC50 (SARS-CoV-2 [2]): 16.1 ± 3.25 µM | IC50 (SARS-CoV-2 nsp13 [3]): 13.6 ± 3.2 µM | activity range on MERS-CoV (MERS-CoV): submicromolar

O=C(/C=C(\O)C(=O)O)/C=C/c1cn(-c2ccc(F)cc2)c2ccccc12 [Compound 4]
IC50 (SARS-CoV-2 nsp13 [1]): 4.7 µM | CC50 (Vero cells): > 264 µM | activity range on HCoV229E (HCoV229E): low micromolar | EC50 (SARS-CoV-2 [2]): 1.7 µM | IC50 (SARS-CoV-2 nsp13 [3]): 8.2 µM | activity range on MERS-CoV (MERS-CoV): submicromolar

COc1ccc(-n2cc(/C=C/C(=O)/C=C(\O)C(=O)O)c3ccccc32)cc1 [Compound 5a]
IC50 (SARS-CoV-2 nsp13 [4]): 2.83 ± 0.54 µM | IC50 (SARS-CoV-2 nsp13 [5]): 11.2 ± 1.37 µM

Cc1ccc(-n2cc(/C=C/C(=O)/C=C(\O)C(=O)O)c3ccccc32)cc1 [Compound 5b]
IC50 (SARS-CoV-2 nsp13 [4]): 11.7 ± 0.94 µM | IC50 (SARS-CoV-2 nsp13 [5]): 5.12 ± 0.38 µM

CC(C)c1ccc(-n2cc(/C=C/C(=O)/C=C(\O)C(=O)O)c3ccccc32)cc1 [Compound 5c]
SI = CC50/EC50 (SARS-CoV-2 [6]): >47 | EC50 (SARS-CoV-2 [6]): 2.12 ± 0.67 µM | selectivity for unwinding over ATPase (SARS-CoV-2 nsp13 [4]): 70 fold | IC50 (SARS-CoV-2 nsp13 [4]): 0.26 ± 0.01 µM | IC50 (SARS-CoV-2 nsp13 [5]): 8.43 ± 0.04 µM | CC50 (in vitro): > 100 µM

O=C(/C=C(\O)C(=O)O)/C=C/c1cn(-c2ccccc2)c2ccccc12 [Compound 5d]
IC50 (SARS-CoV-2 nsp13 [4]): 11.8 ± 0.48 µM | IC50 (SARS-CoV-2 nsp13 [5]): 13.1 ± 0.37 µM

O=C(/C=C(\O)C(=O)O)/C=C/c1cn(-c2ccc(Cl)cc2)c2ccccc12 [Compound 5f]
IC50 (SARS-CoV-2 nsp13 [4]): 2.64 ± 0.61 µM | IC50 (SARS-CoV-2 nsp13 [5]): 20.95 ± 0.14 µM

N#Cc1ccc(-n2cc(/C=C/C(=O)/C=C(\O)C(=O)O)c3ccccc32)cc1 [Compound 5g]
IC50 (SARS-CoV-2 nsp13 [4]): 10 ± 2.07 µM | IC50 (SARS-CoV-2 nsp13 [5]): 13.6 ± 3.8 µM

O=C(/C=C(\O)C(=O)O)/C=C/c1cn(-c2ccc(C(F)(F)F)cc2)c2ccccc12 [Compound 5h]
SI = CC50/EC50 (SARS-CoV-2 [6]): >21 | EC50 (SARS-CoV-2 [6]): 4.56 ± 1.86 µM | selectivity for unwinding over ATPase (SARS-CoV-2 nsp13 [4]): 30 fold | IC50 (SARS-CoV-2 nsp13 [4]): 0.21 ± 0.11 µM | IC50 (SARS-CoV-2 nsp13 [5]): 14.2 ± 1.6 µM | CC50 (in vitro): > 100 µM

CCOC(=O)/C(O)=C/C(=O)/C=C/c1cn(-c2ccc(OC)cc2)c2ccccc12 [Compound 6a]
IC50 (SARS-CoV-2 nsp13 [4]): 7.59 ± 1.5 µM | IC50 (SARS-CoV-2 nsp13 [5]): 10.4 ± 0.13 µM

CCOC(=O)/C(O)=C/C(=O)/C=C/c1cn(-c2ccc(C)cc2)c2ccccc12 [Compound 6b]
IC50 (SARS-CoV-2 nsp13 [4]): 13.9 ± 1.5 µM | IC50 (SARS-CoV-2 nsp13 [5]): 8.64 ± 0.77 µM

CCOC(=O)/C(O)=C/C(=O)/C=C/c1cn(-c2ccc(C(C)C)cc2)c2ccccc12 [Compound 6c]
IC50 (SARS-CoV-2 nsp13 [4]): 4.16 ± 0.44 µM | IC50 (SARS-CoV-2 nsp13 [5]): 13.5 ± 3.34 µM

CCOC(=O)/C(O)=C/C(=O)/C=C/c1cn(-c2ccccc2)c2ccccc12 [Compound 6d]
IC50 (SARS-CoV-2 nsp13 [4]): 3.77 ± 0.13 µM | IC50 (SARS-CoV-2 nsp13 [5]): 4.94 ± 0.21 µM
